From US7235679B2, “Crystals of a vitamin D derivative and a method for the preparation thereof” (Chugai Seiyaku Kabushiki Kaisha, priority 1996, dated 2007)

Tests used:
Format in all cases: physicochemical
[1] = Stability test of ED-71: HPLC quantitative assay (survivability)
Method: (§1) Amorphous and crystalline ED-71 compounds were tested for stability at 10, 25 and […]. To estimate the stability, HPLC quantitative assay and absorbance and purity measurements were utilized. The purity was expressed as peak area ratio in percentage in HPLC (% P.A.R.). The test was carried out by using the following procedures:
(§2) About 2 mg portions of each of the amorphous and crystalline samples are precisely weighed into transparent 10 ml test tubes each having screw cap, individually.
(§3) The test tubes are purged with argon using a vacuum desiccator and a glove box. This purging procedure is not applied to the test tubes indicated as “1 M (air)” in the tables below.
(§4) The test tubes in groups are fixed in thermostatic baths which are respectively controlled at the above temperatures and allowed to stand in the dark. After one (1 W) or two (2 W) weeks or one month (1 M), the test tubes are removed from the baths and subjected to the following assay and measurements:
5 ml of absolute ethanol is precisely added to the test tube to form a sample solution. 1 ml of the sample solution and 1 ml of an internal standard solution are both precisely added to another test tube and the resulting mixture is diluted with methylene chloride to give a whole volume of 20 ml. This diluted solution is designated solution 1. The internal standard solution is formed by dissolving 2-aminopyrimidine in methanol to a concentration of 0.6 mg/ml.
Next, both of 1 ml of another standard solution for quantitative assay which is formed by dissolving crystalline ED-71 in absolute ethanol to a concentration of 0.4 mg/ml and 1 ml of the internal standard solution are precisely added to another test tube and the resulting mixture is diluted with methylene chloride to give a whole volume of 20 ml. This diluted solution is designated solution 2.
HPLC is carried out using 20 μl of each of solutions 1 and 2. For each solution, an area ratio of the peak of ED-71 to the peak of the internal standard substance is determined from the HPLC data. The ED-71 content in the sample is determined from the ratio of the area ratio for solution 1 to that for solution 2.
Survivability (%) is determined by dividing the ED-71 content thus obtained by ED-71 content in the same sample but prior to the above treatment. • HPLC conditions used: • Column: YMC A-004SIL (4.6×300 mm) • Mobile phase: methylene chloride/methanol mixture (95/5) • Flow rate: 1 ml/min • Detection: at UV 265 nm. (3) Absorbance Measurement

[2] = Stability test of ED-71: absorbance measurement at 265 nm (E 1%); settings: absorbance at 265 nm
Method: as §1, §2, §3, §4
1 ml of the sample solution as prepared in “HPLC quantitative assay” above is diluted with absolute ethanol to give a whole volume of 10 ml and this diluted solution is then measured for the absorbance at 265 nm using a ultraviolet spectrophotometer. The absorbance is converted into E 1% value which is derived from Lambert-Beer Law and the conversion is made according to the following equation: E1%=A/cb wherein A is absorbance, c is concentration in g/100 ml and b is length of optical path in cm across the test solution, which is commonly 1. (4) Purity Measurement

[3] = Stability test of ED-71: purity measurement using reverse phase HPLC; settings: for Purity Measurement Using Reverse Phase HPLC, ED-71 peak / Purity Measurement Using Reverse Phase HPLC, Other peaks / Purity Measurement Using Reverse Phase HPLC, Pre Form peak: 265 nm
Method: as §1, §2, §3, §4
HPLC is carried out using 25 μl of the sample solution as prepared in “HPLC quantitative assay” above. • HPLC conditions used: • Column: Inertsil ODS-2 (5×250 mm) • Mobile phase: acetonitrile/water mixture (55/45) • Flow rate: 1 ml/min • Detection: at UV 265 and 220 nm.

C=C1/C(=C\C=C2/CCC[C@]3(C)[C@@H]([C@H](C)CCCC(C)(C)O)CC[C@@H]23)C[C@@H](O)[C@@H](OCCCO)[C@@H]1O [Crys., 1α,25-dihydroxy-2β-(3-hydroxypropoxy)vitamin D3]
HPLC Quantitative Assay (% Survivability) ([1]; 10° C., 1 M (air), dark): 95.0% | HPLC Quantitative Assay (% Survivability) ([1]; 10° C., 1 M, argon, dark): 97.0% | HPLC Quantitative Assay (% Survivability) ([1]; 10° C., 2 W, argon, dark): 96.8% | HPLC Quantitative Assay (% Survivability) ([1]; 10° C., time 0): 100% | HPLC Quantitative Assay (% Survivability) ([1]; 25° C., 1 W, argon, dark): 99.4% | HPLC Quantitative Assay (% Survivability) ([1]; 25° C., 2 W, argon, dark): 98.8% | HPLC Quantitative Assay (% Survivability) ([1]; 25° C., time 0): 100% | HPLC Quantitative Assay (% Survivability) ([1]; 40° C., 1 W, argon, dark): 99.5% | HPLC Quantitative Assay (% Survivability) ([1]; 40° C., 2 W, argon, dark): 102.9% | HPLC Quantitative Assay (% Survivability) ([1]; 40° C., time 0): 100% | E 1% ([2]; 10° C., 1 M (air), dark): 341.7 | E 1% ([2]; 10° C., 1 M, argon, dark): 342.7 | E 1% ([2]; 10° C., 2 W, argon, dark): 343.8 | E 1% ([2]; 10° C., time 0): 359.2 | E 1% ([2]; 25° C., 1 W, argon, dark): 349.5 | E 1% ([2]; 25° C., 2 W, argon, dark): 341.6 | E 1% ([2]; 25° C., time 0): 359.2 | E 1% ([2]; 40° C., 1 W, argon, dark): 349.8 | E 1% ([2]; 40° C., 2 W, argon, dark): 348.7 | E 1% ([2]; 40° C., time 0): 359.2 | 220 nm (%), ED-71 peak ([3]; 10° C., 1 M (air), dark): 97.09% | 220 nm (%), Other peaks ([3]; 10° C., 1 M (air), dark): 1.82% | 220 nm (%), Pre Form peak ([3]; 10° C., 1 M (air), dark): 1.09% | 220 nm (%), ED-71 peak ([3]; 10° C., 1 M, argon, dark): 97.44% | 220 nm (%), Other peaks ([3]; 10° C., 1 M, argon, dark): 1.51% | 220 nm (%), Pre Form peak ([3]; 10° C., 1 M, argon, dark): 1.05% | 220 nm (%), ED-71 peak ([3]; 10° C., 2 W, argon, dark): 97.91% | 220 nm (%), Other peaks ([3]; 10° C., 2 W, argon, dark): 1.09% | 220 nm (%), Pre Form peak ([3]; 10° C., 2 W, argon, dark): 1.01% | 220 nm (%), ED-71 peak ([3]; 10° C., time 0): 97.44% | 220 nm (%), Other peaks ([3]; 10° C., time 0): 2.04% | 220 nm (%), Pre Form peak ([3]; 10° C., time 0): 0.52% | 220 nm (%), ED-71 peak ([3]; 25° C., 1 W, argon, dark): 98.17% | 220 nm (%), Other peaks ([3]; 25° C., 1 W, argon, dark): 1.40% | 220 nm (%), Pre Form peak ([3]; 25° C., 1 W, argon, dark): 0.44% | 220 nm (%), ED-71 peak ([3]; 25° C., 2 W, argon, dark): 97.56% | 220 nm (%), Other peaks ([3]; 25° C., 2 W, argon, dark): 1.43% | 220 nm (%), Pre Form peak ([3]; 25° C., 2 W, argon, dark): 1.01% | 220 nm (%), ED-71 peak ([3]; 25° C., time 0): 97.44% | 220 nm (%), Other peaks ([3]; 25° C., time 0): 2.04% | 220 nm (%), Pre Form peak ([3]; 25° C., time 0): 0.52% | 220 nm (%), ED-71 peak ([3]; 40° C., 1 W, argon, dark): 98.18% | 220 nm (%), Other peaks ([3]; 40° C., 1 W, argon, dark): 1.35% | 220 nm (%), Pre Form peak ([3]; 40° C., 1 W, argon, dark): 0.47% | 220 nm (%), ED-71 peak ([3]; 40° C., 2 W, argon, dark): 97.65% | 220 nm (%), Other peaks ([3]; 40° C., 2 W, argon, dark): 1.33% | 220 nm (%), Pre Form peak ([3]; 40° C., 2 W, argon, dark): 1.02% | 220 nm (%), ED-71 peak ([3]; 40° C., time 0): 97.44% | 220 nm (%), Other peaks ([3]; 40° C., time 0): 2.04% | 220 nm (%), Pre Form peak ([3]; 40° C., time 0): 0.52% | Purity Measurement Using Reverse Phase HPLC, ED-71 peak ([3]; 10° C., 1 M (air), dark): 98.72 % P.A.R | Purity Measurement Using Reverse Phase HPLC, Other peaks ([3]; 10° C., 1 M (air), dark): 0.42 % P.A.R | Purity Measurement Using Reverse Phase HPLC, Pre Form peak ([3]; 10° C., 1 M (air), dark): 0.86 % P.A.R | Purity Measurement Using Reverse Phase HPLC, ED-71 peak ([3]; 10° C., 1 M, argon, dark): 98.77 % P.A.R | Purity Measurement Using Reverse Phase HPLC, Other peaks ([3]; 10° C., 1 M, argon, dark): 0.37 % P.A.R | Purity Measurement Using Reverse Phase HPLC, Pre Form peak ([3]; 10° C., 1 M, argon, dark): 0.86 % P.A.R | Purity Measurement Using Reverse Phase HPLC, ED-71 peak ([3]; 10° C., 2 W, argon, dark): 98.84 % P.A.R | Purity Measurement Using Reverse Phase HPLC, Other peaks ([3]; 10° C., 2 W, argon, dark): 0.32 % P.A.R | Purity Measurement Using Reverse Phase HPLC, Pre Form peak ([3]; 10° C., 2 W, argon, dark): 0.83 % P.A.R | Purity Measurement Using Reverse Phase HPLC, ED-71 peak ([3]; 10° C., time 0): 99.04 % P.A.R | Purity Measurement Using Reverse Phase HPLC, Other peaks ([3]; 10° C., time 0): 0.60 % P.A.R | Purity Measurement Using Reverse Phase HPLC, Pre Form peak ([3]; 10° C., time 0): 0.36 % P.A.R | Purity Measurement Using Reverse Phase HPLC, ED-71 peak ([3]; 25° C., 1 W, argon, dark): 99.35 % P.A.R | Purity Measurement Using Reverse Phase HPLC, Other peaks ([3]; 25° C., 1 W, argon, dark): 0.38 % P.A.R | Purity Measurement Using Reverse Phase HPLC, Pre Form peak ([3]; 25° C., 1 W, argon, dark): 0.28 % P.A.R | Purity Measurement Using Reverse Phase HPLC, ED-71 peak ([3]; 25° C., 2 W, argon, dark): 98.78 % P.A.R | Purity Measurement Using Reverse Phase HPLC, Other peaks ([3]; 25° C., 2 W, argon, dark): 0.37 % P.A.R | Purity Measurement Using Reverse Phase HPLC, Pre Form peak ([3]; 25° C., 2 W, argon, dark): 0.85 % P.A.R | Purity Measurement Using Reverse Phase HPLC, ED-71 peak ([3]; 25° C., time 0): 99.04 % P.A.R | Purity Measurement Using Reverse Phase HPLC, Other peaks ([3]; 25° C., time 0): 0.60 % P.A.R | Purity Measurement Using Reverse Phase HPLC, Pre Form peak ([3]; 25° C., time 0): 0.36 % P.A.R | Purity Measurement Using Reverse Phase HPLC, ED-71 peak ([3]; 40° C., 1 W, argon, dark): 99.40 % P.A.R | Purity Measurement Using Reverse Phase HPLC, Other peaks ([3]; 40° C., 1 W, argon, dark): 0.31 % P.A.R | Purity Measurement Using Reverse Phase HPLC, Pre Form peak ([3]; 40° C., 1 W, argon, dark): 0.29 % P.A.R | Purity Measurement Using Reverse Phase HPLC, ED-71 peak ([3]; 40° C., 2 W, argon, dark): 98.75 % P.A.R | Purity Measurement Using Reverse Phase HPLC, Other peaks ([3]; 40° C., 2 W, argon, dark): 0.40 % P.A.R | Purity Measurement Using Reverse Phase HPLC, Pre Form peak ([3]; 40° C., 2 W, argon, dark): 0.85 % P.A.R | Purity Measurement Using Reverse Phase HPLC, ED-71 peak ([3]; 40° C., time 0): 99.04 % P.A.R | Purity Measurement Using Reverse Phase HPLC, Other peaks ([3]; 40° C., time 0): 0.60 % P.A.R | Purity Measurement Using Reverse Phase HPLC, Pre Form peak ([3]; 40° C., time 0): 0.36 % P.A.R
